# System: glucose-6-phosphate
# Conditions: micropost tips 40% G6PD and 60% PEO 200 k, versus uncompressed powder
# Method: To perform the activity assay on G6PD, an activity assay kit (Sigma Aldrich) was used which measures the amount of oxidized glucose-6-phosphate. […] Duplicate assays were performed on the dissolved solution.
substance,measurement,value
glucose-6-phosphate dehydrogenase,G6PD activity after the manufacturing process,maintain their activity

# Reference: patent US11541015B2, “Self-righting systems, methods, and related components” (priority 2017, dated 2023)
